Measurements reported in article PMC10819888, “Benzimidazole-Based Derivatives as Apoptotic Antiproliferative Agents: Design, Synthesis, Docking, and Mechanistic Studies” (Molecules, 2024).

Experiments:
[1] = system: MOLT-4; experiment: NCI-60 five-dose assay; type: cell-based, human; details: MOLT-4 (Leukemia), 48 h
[2] = system: SR; experiment: NCI-60 five-dose assay; type: cell-based, human; details: SR (Leukemia), 48 h
[3] = system: A549/ATCC; experiment: NCI-60 five-dose assay; type: cell-based, human; details: A549/ATCC (Non-Small Cell Lung Cancer), 48 h
[4] = system: EKVX; experiment: NCI-60 five-dose assay; type: cell-based, human; details: EKVX (Non-Small Cell Lung Cancer), 48 h
[5] = system: HOP-62; experiment: NCI-60 five-dose assay; type: cell-based, human; details: HOP-62 (Non-Small Cell Lung Cancer), 48 h
[6] = system: COLO 205; experiment: NCI-60 five-dose assay; type: cell-based, human; details: COLO 205 (Colon Cancer), 48 h
[7] = system: KM12; experiment: NCI-60 five-dose assay; type: cell-based, human; details: KM12 (Colon Cancer), 48 h
[8] = system: MALME-3M; experiment: NCI-60 five-dose assay; type: cell-based, human; details: MALME-3M (Melanoma), 48 h
[9] = system: M14; experiment: NCI-60 five-dose assay; type: cell-based, human; details: M14 (Melanoma), 48 h
[10] = system: OVCAR-3; experiment: NCI-60 five-dose assay; type: cell-based, human; details: OVCAR-3 (Ovarian Cancer), 48 h
[11] = system: OVCAR-8; experiment: NCI-60 five-dose assay; type: cell-based, human; details: OVCAR-8 (Ovarian Cancer), 48 h
[12] = system: 786-0; experiment: NCI-60 five-dose assay; type: cell-based, human; details: 786-0 (Renal Cancer), 48 h
[13] = system: A498; experiment: NCI-60 five-dose assay; type: cell-based, human; details: A498 (Renal Cancer), 48 h
[14] = system: MCF7; experiment: NCI-60 five-dose assay; type: cell-based, human; details: MCF7 (Breast Cancer), 48 h
[15] = system: MDA-MB-468; experiment: NCI-60 five-dose assay; type: cell-based, human; details: MDA-MB-468 (Breast Cancer), 48 h
[16] = system: Leukemia subpanel; experiment: NCI-60 five-dose assay, subpanel; type: cell-based, human
[17] = system: Non-Small Cell Lung Cancer subpanel; experiment: NCI-60 five-dose assay, subpanel; type: cell-based, human
[18] = system: Colon Cancer subpanel; experiment: NCI-60 five-dose assay, subpanel; type: cell-based, human
[19] = system: CNS Cancer subpanel; experiment: NCI-60 five-dose assay, subpanel; type: cell-based, human
[20] = system: Breast Cancer subpanel; experiment: NCI-60 five-dose assay, subpanel; type: cell-based, human
[21] = biological target: BRAF^V600E; experiment: biochemical
[22] = Homo sapiens, read-out: GI50 Conc. per Cell Line
[23] = Homo sapiens, read-out: LC50 (the source's name)

BRAF^V600E, sequence (P28028 whole entry V585E): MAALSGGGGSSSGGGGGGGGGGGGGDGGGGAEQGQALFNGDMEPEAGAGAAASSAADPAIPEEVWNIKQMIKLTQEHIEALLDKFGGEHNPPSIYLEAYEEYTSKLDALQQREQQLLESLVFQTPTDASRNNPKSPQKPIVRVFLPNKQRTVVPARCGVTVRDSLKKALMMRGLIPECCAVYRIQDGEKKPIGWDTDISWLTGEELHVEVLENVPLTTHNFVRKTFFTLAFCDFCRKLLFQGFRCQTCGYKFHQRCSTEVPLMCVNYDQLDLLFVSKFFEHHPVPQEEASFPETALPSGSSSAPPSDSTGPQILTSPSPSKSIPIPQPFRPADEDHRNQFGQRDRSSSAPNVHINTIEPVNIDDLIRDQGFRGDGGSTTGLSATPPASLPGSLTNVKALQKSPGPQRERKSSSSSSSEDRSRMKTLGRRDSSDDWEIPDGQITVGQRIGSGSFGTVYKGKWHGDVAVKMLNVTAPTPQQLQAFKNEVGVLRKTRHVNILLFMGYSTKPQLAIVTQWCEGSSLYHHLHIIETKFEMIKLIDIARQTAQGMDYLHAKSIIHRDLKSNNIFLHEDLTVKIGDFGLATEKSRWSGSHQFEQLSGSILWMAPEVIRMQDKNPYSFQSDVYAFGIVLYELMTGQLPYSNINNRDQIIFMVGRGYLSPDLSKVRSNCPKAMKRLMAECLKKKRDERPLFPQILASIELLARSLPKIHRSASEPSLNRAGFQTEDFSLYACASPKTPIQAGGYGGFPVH

O=C(NN=Cc1ccc(Cl)cc1)c1ccc2[nH]c(-c3ccc(Cl)cc3)nc2c1 [Compound 4e, N′-(4-Chlorobenzylidene)-2-(4-chlorophenyl)-1H-benzimidazole-5-carbohydrazide]
GI50 [1, 22]: 1550 nM | CC50 [1, 23]: 28.2 µM | TGI [1]: 4.81 µM | GI50 [2, 22]: 1010 nM | CC50 [2, 23]: 37 µM | TGI [2]: 3.95 µM | TGI [3]: 4.53 µM | GI50 [3, 22]: 2160 nM | CC50 [3, 23]: 9.52 µM | TGI [4]: 3.68 µM | GI50 [4, 22]: 1820 nM | CC50 [4, 23]: 7.43 µM | TGI [5]: 4.10 µM | GI50 [5, 22]: 1800 nM | CC50 [5, 23]: 9.32 µM | TGI [6]: 3.25 µM | GI50 [6, 22]: 1550 nM | CC50 [6, 23]: 8.82 µM | GI50 [7, 22]: 2030 nM | CC50 [7, 23]: 9.8 µM | TGI [7]: 4.46 µM | LC50 ([8]; Homo sapiens): 6.41 µM | GI50 [8, 22]: 1550 nM | TGI [8]: 3.15 µM | GI50 [9, 22]: 1650 nM | CC50 [9, 23]: 8.96 µM | TGI [9]: 3.84 µM | GI50 [10, 22]: 1840 nM | CC50 [10, 23]: 6.28 µM | TGI [10]: 3.39 µM | GI50 [11, 22]: 2110 nM | CC50 [11, 23]: 16.5 µM | TGI [11]: 4.74 µM | TGI [12]: 3.48 µM | GI50 [12, 22]: 1790 nM | CC50 [12, 23]: 6.76 µM | TGI [13]: 4.94 µM | GI50 [13, 22]: 1740 nM | CC50 [13, 23]: 19.6 µM | GI50 [14, 22]: 1150 nM | CC50 [14, 23]: 5.73 µM | TGI [14]: 2.56 µM | LC50 (concentration killing 50% of cells) ([15]; Homo sapiens): 6.36 µM | GI50 [15, 22]: 1640 nM | TGI [15]: 3.23 µM | GI50 ([16]; Homo sapiens, Leukemia, average sensitivity of all subpanel cell lines, read-out: GI50 Subpanel MID b): 1330 nM | GI50 Selectivity Ratio (MID a/MID b) ([16]; Leukemia subpanel): 1.35 | GI50 ([17]; Homo sapiens, Non-Small Cell Lung Cancer, average sensitivity of all subpanel cell lines, read-out: GI50 Subpanel MID b): 1900 nM | GI50 Selectivity Ratio (MID a/MID b) ([17]; Non-Small Cell Lung Cancer subpanel): 0.94 | GI50 Selectivity Ratio (MID a/MID b) ([18]; Colon Cancer subpanel): 1.04 | GI50 ([18]; Homo sapiens, Colon Cancer, average sensitivity of all subpanel cell lines, read-out: GI50 Subpanel MID b): 1720 nM | GI50 Selectivity Ratio (MID a/MID b) ([19]; CNS Cancer subpanel): 0.92 | GI50 ([19]; Homo sapiens, CNS Cancer, average sensitivity of all subpanel cell lines, read-out: GI50 Subpanel MID b): 1940 nM | GI50 Selectivity Ratio (MID a/MID b) ([20]; Breast Cancer subpanel): 0.79 | GI50 ([20]; Homo sapiens, Breast Cancer, average sensitivity of all subpanel cell lines, read-out: GI50 Subpanel MID b): 2270 nM | IC50 [21]: 200 ± 20 nM
